Experimental data from US20260191768A1, “PHARMACEUTICAL COMPOSITION CONTAINING HIGH CONCENTRATION OF OPIRANSERIN” (VIVOZON, INC., priority 2022, published 2026).
Where a name gives a salt, the structure may show the parent alone.

Columns and labels:
Assay type in all cases: physicochemical
[1] = Solubility of opiranserin hydrochloride as stated in the description; conditions: solvent not stated; regarded as "sparingly soluble"
[2] = Screening of hydrotropes for improving solubility of opiranserin hydrochloride
Description: After adding 50 mL of water for injection into a 200 mL beaker, a weight of hydrotrope corresponding to the target content was added thereto and stirred at room temperature to completely dissolve it. Then, a weight of opiranserin hydrochloride corresponding to the target concentration was added and stirred at room temperature to completely dissolve it. If it was not completely dissolved in some solvents, the temperature was raised to 40° C. and additional stirring was carried out. When the added materials were completely dissolved, water for injection was added to the beaker to reach the 100 mL mark and further stirred to ensure that the composition was completely mixed. The prepared compositions were filtered using a 0.2 μm syringe filter and then dispensed into vials for injection.

[3] = Room temperature stability of dissolved opiranserin hydrochloride; conditions: for Opiranserin hydrochloride concentration, Initial: prepared at 40° C. for 3 hours
Description: Among solvents showing high solubility in Experimental Example 1, the solvents that have no irritation or can minimize irritation when preparing medicines were selected as shown in Table 2. Then, the solubility and short-term room temperature stability of opiranserin hydrochloride according to the concentration content were estimated. Each preparation was prepared by adjusting the solvent according to the concentration, adding an excess amount of opiranserin hydrochloride, and stirring at 40° C. for 3 hours. The preparation was centrifuged, the supernatant was transferred to a glass vial, and stored at room temperature to observe properties and analyze content. Liquid chromatography (HPLC) was used to analyze the content of opiranserin hydrochloride, and sampling was carried out upon completion of preparation and after storage at room temperature for 65 hours.

[4] = Solubility measurement of opiranserin hydrochloride according to solvents (HPLC); conditions: for solubility at 7 days / solubility at 3 h: thermodynamic from solid; for solubility at 7 days: 25° C./7 days
Description: An excess amount of opiranserin hydrochloride was added to the solvents shown in Table 1, stirred under the following conditions, centrifuged and filtered, and the filtrate was diluted. The solubility of the drug was measured using high-performance liquid chromatography (HPLC).

[5] = Solvent 27: 1 w/v % Poloxamer 124
[6] = Solvent 28: 5 w/v % Poloxamer 124
[7] = Solvent 29: 1 w/v % Propylene glycol
[8] = Solvent 30: 5 w/v % Propylene glycol

Compound: CCCCOc1c(OC)cc(C(=O)NCC2(N(C)C)CCOCC2)cc1OC [Opiranserin hydrochloride, 4-butoxy-N-((4-(dimethylamino)tetrahydro-2H-pyran-4-yl)methyl)-3,5-dimethoxy benzamide]
- solubility [1]: 25 mg/mL
- Concentration of opiranserin hydrochloride that could be dissolved ([2]; sodium benzoate used as a hydrotrope): up to 300 mg/mL
- Concentration of opiranserin hydrochloride that could be stably dissolved ([2]; sodium salicylate used as a hydrotrope): up to 100 mg/mL
- Concentration of opiranserin hydrochloride that could be stably dissolved ([2]; trisodium citrate dihydrate used as a hydrotrope): up to 100 mg/mL
- Change in properties after storage at room temperature for 65 hours ([3]; Solvent 25: 1 w/v % Triacetin): Recrystallization generation
- Opiranserin hydrochloride concentration, After storage at room temperature for 65 hours ([3]; Solvent 25: 1 w/v % Triacetin): 44.33 mg/mL
- Opiranserin hydrochloride concentration, Initial ([3]; Solvent 25: 1 w/v % Triacetin): 78.6 mg/mL
- Change in properties after storage at room temperature for 65 hours ([3]; Solvent 26: 6 w/v % Triacetin): Recrystallization generation
- Opiranserin hydrochloride concentration, After storage at room temperature for 65 hours ([3]; Solvent 26: 6 w/v % Triacetin): 38.1 mg/mL
- Change in properties after storage at room temperature for 65 hours ([3]; Solvent 26: 6 w/v % Triacetin, listed as opiranserin hydrochloride): recrystallization of needle-shaped structure was generated
- Opiranserin hydrochloride concentration, Initial ([3]; Solvent 26: 6 w/v % Triacetin): 86.1 mg/mL
- Change in properties after storage at room temperature for 65 hours [3, 5]: Recrystallization generation
- Opiranserin hydrochloride concentration, After storage at room temperature for 65 hours [3, 5]: 41.1 mg/mL
- Opiranserin hydrochloride concentration, Initial [3, 5]: 72.1 mg/mL
- Change in properties after storage at room temperature for 65 hours [3, 6]: Recrystallization generation
- Opiranserin hydrochloride concentration, After storage at room temperature for 65 hours [3, 6]: 42.5 mg/mL
- Opiranserin hydrochloride concentration, Initial [3, 6]: 83.8 mg/mL
- Change in properties after storage at room temperature for 65 hours [3, 7]: Recrystallization generation
- Opiranserin hydrochloride concentration, After storage at room temperature for 65 hours [3, 7]: 34.8 mg/mL
- Opiranserin hydrochloride concentration, Initial [3, 7]: 61.8 mg/mL
- Change in properties after storage at room temperature for 65 hours [3, 8]: Recrystallization generation
- Opiranserin hydrochloride concentration, After storage at room temperature for 65 hours [3, 8]: 34.8 mg/mL
- Opiranserin hydrochloride concentration, Initial [3, 8]: 74.0 mg/mL
- solubility at 7 days ([4]; 1 w/v % Caprylocaproyl polyoxyl 8 glyceride, 25 °C, aqueous with cosolvent or surfactant or cyclodextrin, Solvent 7: 1 w/v % Caprylocaproyl polyoxyl 8 glyceride): 46.2 mg/mL
- solubility at 7 days ([4]; 1 w/v % Hydroxpropyl-beta-cyclodextrin, 25 °C, aqueous with cosolvent or surfactant or cyclodextrin, Solvent 10: 1 w/v % Hydroxpropyl-beta-cyclodextrin): 49.2 mg/mL
- solubility at 7 days ([4]; 1 w/v % Macrogol 15 hydroxystearate, 25 °C, aqueous with cosolvent or surfactant or cyclodextrin, Solvent 8: 1 w/v % Macrogol 15 hydroxystearate): 44 mg/mL
- solubility at 7 days ([4]; 1 w/v % PEG-6 caprylic/capric glyceride, 25 °C, aqueous with cosolvent or surfactant or cyclodextrin, Solvent 16: 1 w/v % PEG-6 caprylic/capric glyceride): 49 mg/mL
- solubility at 3 h ([4]; 1 w/v % Poloxamer 124, 40 °C, aqueous with cosolvent or surfactant or cyclodextrin, Solvent 21: 1 w/v % Poloxamer 124, 40° C./3 hours): 72.1 mg/mL
- solubility at 7 days ([4]; 1 w/v % Polyoxyl 35 castor oil, 25 °C, aqueous with cosolvent or surfactant or cyclodextrin, Solvent 6: 1 w/v % Polyoxyl 35 castor oil): 42.1 mg/mL
- solubility at 7 days ([4]; 1 w/v % Polysorbate 80, 25 °C, aqueous with cosolvent or surfactant or cyclodextrin, Solvent 9: 1 w/v % Polysorbate 80): 44.7 mg/mL
- solubility at 3 h ([4]; 1 w/v % Propylene glycol, 40 °C, water, Solvent 23: 1 w/v % Propylene glycol, 40° C./3 hours): 61.8 mg/mL
- solubility at 7 days ([4]; 1 w/v % Triacetin, 25 °C, water, Solvent 13: 1 w/v % Triacetin): 49.7 mg/mL
- solubility at 3 h ([4]; 1 w/v % Triacetin, 40 °C, water, Solvent 19: 1 w/v % Triacetin, 40° C./3 hours): 78.6 mg/mL
- solubility at 7 days ([4]; 3 w/v % Hydroxpropyl-beta-cyclodextrin, 25 °C, aqueous with cosolvent or surfactant or cyclodextrin, Solvent 11: 3 w/v % Hydroxpropyl-beta-cyclodextrin): 55.6 mg/mL
- solubility at 7 days ([4]; 3 w/v % PEG-6 caprylic/capric glyceride, 25 °C, aqueous with cosolvent or surfactant or cyclodextrin, Solvent 17: 3 w/v % PEG-6 caprylic/capric glyceride): 57 mg/mL
- solubility at 7 days ([4]; 3 w/v % Triacetin, 25 °C, water, Solvent 14: 3 w/v % Triacetin): 57.1 mg/mL
- solubility at 3 h ([4]; 5 w/v % Poloxamer 124, 40 °C, aqueous with cosolvent or surfactant or cyclodextrin, Solvent 22: 5 w/v % Poloxamer 124, 40° C./3 hours): 83.8 mg/mL
- solubility at 3 h ([4]; 5 w/v % Propylene glycol, 40 °C, aqueous with cosolvent or surfactant or cyclodextrin, Solvent 24: 5 w/v % Propylene glycol, 40° C./3 hours): 74 mg/mL
- solubility at 7 days ([4]; 6 w/v % Hydroxpropyl-beta-cyclodextrin, 25 °C, aqueous with cosolvent or surfactant or cyclodextrin, Solvent 12: 6 w/v % Hydroxpropyl-beta-cyclodextrin): 63.3 mg/mL
- solubility at 7 days ([4]; 6 w/v % PEG-6 caprylic/capric glyceride, 25 °C, aqueous with cosolvent or surfactant or cyclodextrin, Solvent 18: 6 w/v % PEG-6 caprylic/capric glyceride): 67.6 mg/mL
- solubility at 7 days ([4]; 6 w/v % Triacetin, 25 °C, aqueous with cosolvent or surfactant or cyclodextrin, Solvent 15: 6 w/v % Triacetin): 72.7 mg/mL
- solubility at 3 h ([4]; 6 w/v % Triacetin, 40 °C, aqueous with cosolvent or surfactant or cyclodextrin, Solvent 20: 6 w/v % Triacetin, 40° C./3 hours): ~86 mg/mL
- solubility at 7 days ([4]; 100% Ethanol, 25 °C, organic solvent or mixture, Solvent 2: 100% Ethanol): 25.1 mg/mL
- solubility at 7 days ([4]; 100% Methanol, 25 °C, organic solvent or mixture, Solvent 3: 100% Methanol): 36 mg/mL
- solubility at 7 days ([4]; 100% Polyethylene, 25 °C, organic solvent or mixture, Solvent 5: 100% Polyethylene): 2.59 mg/mL
- solubility at 7 days ([4]; 100% Propylene glycol, 25 °C, organic solvent or mixture, Solvent 4: 100% Propylene glycol): 13 mg/mL
- solubility at 7 days ([4]; Purified water, 25 °C, water, Solvent 1: Purified water): 45.2 mg/mL
- Opiranserin hydrochloride Solubility ([4]; Solvent 20: 6 w/v % Triacetin, 40° C./3 hours): 86.1 mg/mL
